tested on: THP-1 cells; assay: THP-1 differentiation induction-promoting activity; assay type: cell-based; details: Homo sapiens, THP-1; lowest concentration necessary to show 50% activity relative to the activity value of erythromycin A at 100 μM; PMA 1-2 μM, 72-96 hr
Description: As one index of the anti-inflammatory action of the compound of the present invention, the differentiation induction-promoting activity of THP-1 cell was measured. The measurement was performed as shown below.
THP-1 cells (ATCC No. TIB-202) were adjusted to a concentration of 2×10^5 cells/ml with a medium (RPMI 1640), PMA was added thereto to a final concentration of 1-2 μM, and the mixture was dispensed to each well of a 96 well plate by 100 μl. A solution (100 μl) containing a test substance was adjusted to an appropriate concentration with the medium and added to each well. The mixture was stirred by gently shaking the plate, and incubated under 37° C., 5% CO2 conditions for 72-96 hr. Each well was washed with PBS, a medium containing the viable cell measurement reagent SF (Nacalai Tesque) was added at 100 μl/well and the mixture was incubated under the conditions of 37° C., 5% CO2 for 3-5 hr. The absorbance was measured with a plate reader.
In the Table, the activity value is the lowest concentration necessary for the test compound to show a 50% activity value relative to the activity value of erythromycin A at 100 μM in this experiment.
THP-1 differentiation induction-promoting activity: The lowest concentration necessary for each compound to show 50% activity relative to the activity value of erythromycin A at 100 μM.

| Structure (SMILES) | minimal effective concentration [µM] |
| --- | --- |
| CC[C@@H](O)[C@@](C)(O)[C@@H]1OC(=O)[C@H](C)[C@@H](O[C@H]2CC(C)(OC)[C@@H](O)C(C)O2)[C@H](C)[C@@H](O[C@@H]2OC(C)CC(N(Cc3ccccc3)Cc3ccccc3)C2O)[C@@]2(C)CC(C)C(O2)[C@@H]1C (stereo partly shown) [EM904, bis-de(3′-N-methyl)-bis-(3′-N-benzyl)-9-dihydro-pseudoerythromycin A 6,9-epoxide] | 10 |
| CC[C@@H](O)[C@@](C)(O)[C@@H]1OC(=O)[C@H](C)C(=O)[C@H](C)[C@H](O[C@@H]2OC(C)CC(N(C)Cc3ccc(Cl)cc3)C2O)[C@]2(C)CC(C)C(O2)[C@@H]1C (stereo partly shown) [EM949, de(3′-N-methyl)-3′-N-(p-chlorobenzyl)-de(3-O-cladinosyl)-9-dihydro-3-keto-pseudoerythromycin A 6,9-epoxide] | 10 |
| COC1(C)C[C@H](O[C@H]2[C@H](C)[C@@H](O[C@@H]3OC(C)CC(N(C)C)C3O)[C@]3(C)CC(C)C(O3)[C@H](C)[C@H](C(C)O)OC(=O)[C@@H]2C)OC(C)[C@@H]1O (stereo partly shown) [EM908, de[12-(1-hydroxypropyl)]-9-dihydro-pseudoerythromycin A 6,9-epoxide] | 10 |
| CC[C@H]1OC(=O)O[C@@]1(C)[C@@H]1OC(=O)[C@H](C)C(=O)[C@H](C)[C@@H](O[C@@H]2OC(C)CC(N3CCOCC3)C2OC(C)=O)[C@]2(C)CC(C)C(O2)[C@@H]1C (stereo partly shown) [EM932, 2′-O-acetyl-de(3-O-cladinosyl)-9-dihydro-3-keto-de(3′-dimethylamino)-3′-morpholino-pseudoerythromycin A 6,9-epoxide 12,13-carbonate] | 10 |
| CC[C@@H](OC(C)=O)[C@@](C)(O)[C@@H]1OC(=O)[C@H](C)[C@@H](O[C@H]2CC(C)(OC)C(OC(C)=O)C(C)O2)[C@H](C)[C@@H](O[C@@H]2OC(C)CC(N(C)C)C2O)[C@]2(C)CC(C)C(O2)[C@@H]1C (stereo partly shown) [EM911, 4″,13-O-diacetyl-9-dihydro-pseudoerythromycin A 6,9-epoxide] | 10 |
| CC[C@@H](O)[C@@](C)(O)[C@@H]1OC(=O)[C@H](C)[C@@H](O)[C@H](C)[C@H](O[C@@H]2OC(C)CC(N(C)Cc3ccc(Cl)cc3)C2O)[C@@]2(C)CC(C)C(O2)[C@@H]1C (stereo partly shown) [EM925, de(3′-N-methyl)-3′-N-(p-chlorobenzyl)-de(3-O-cladinosyl)-9-dihydro-pseudoerythromycin A 6,9-epoxide] | 30 |
| CC[C@@H](O)[C@@](C)(O)[C@@H]1OC(=O)[C@H](C)[C@@H](O[C@H]2CC(C)(OC)[C@@H](O)C(C)O2)[C@H](C)[C@@H](O[C@@H]2OC(C)CC(N(C)C)C2OC(C)=O)[C@]2(C)CC(C)C(O2)[C@@H]1C (stereo partly shown) [EM913, 2′-O-acetyl-9-dihydro-pseudoerythromycin A 6,9-epoxide] | 30 |
| CC[C@@H](O)[C@@](C)(O)[C@@H]1OC(=O)[C@H](C)[C@@H](O[C@H]2CC(C)(OC)[C@@H](O)C(C)O2)[C@H](C)[C@@H](O[C@@H]2OC(C)CC(N(C)Cc3ccccc3)C2O)[C@@]2(C)CC(C)C(O2)[C@@H]1C (stereo partly shown) [EM902, de(3′-N-methyl)-3′-N-benzyl-9-dihydro-pseudoerythromycin A 6,9-epoxide] | 30 |
| CC[C@@H](O)[C@@](C)(O)[C@@H]1OC(=O)[C@H](C)[C@@H](O[C@H]2CC(C)(OC)[C@@H](O)C(C)O2)[C@H](C)[C@@H](O[C@@H]2OC(C)CC(N)C2O)[C@]2(C)CC(C)C(O2)[C@@H]1C (stereo partly shown) [EM903, bis-de(3′-N-methyl)-9-dihydro-pseudoerythromycin A 6,9-epoxide] | 30 |
| CC[C@H]1OC(=O)O[C@@]1(C)[C@@H]1OC(=O)[C@H](C)C(=O)[C@H](C)[C@@H](O[C@@H]2OC(C)CC(N(C)C)C2OC(C)=O)[C@]2(C)CC(C)C(O2)[C@@H]1C (stereo partly shown) [EM917, 2′-O-acetyl-de(3-O-cladinosyl)-9-dihydro-3-keto-pseudoerythromycin A 6,9-epoxide 12,13-carbonate] | 30 |
| CC[C@H]1OC(=O)O[C@@]1(C)[C@@H]1OC(=O)[C@H](C)C(=O)[C@H](C)[C@@H](O[C@@H]2OC(C)CC(N(C)C)C2O)[C@]2(C)CC(C)C(O2)[C@@H]1C (stereo partly shown) [EM918, de(3-O-cladinosyl)-9-dihydro-3-keto-pseudoerythromycin A 6,9-epoxide 12,13-carbonate] | 30 |
| COC1(C)C[C@H](O[C@H]2[C@H](C)[C@@H](O[C@@H]3OC(C)CC(N(C)C)C3O)[C@]3(C)CC(C)C(O3)[C@H](C)[C@H](C(C)=O)OC(=O)[C@@H]2C)OC(C)[C@@H]1O (stereo partly shown) [EM906, de[12-(1-hydroxypropyl)]-9-dihydro-12-oxo-pseudoerythromycin A 6,9-epoxide] | 30 |
| CC[C@H]1OC(=O)O[C@@]1(C)[C@@H]1OC(=O)[C@H](C)C(=O)[C@H](C)[C@@H](O[C@@H]2OC(C)CC(N3CCOCC3)C2O)[C@]2(C)CC(C)C(O2)[C@@H]1C (stereo partly shown) [EM935, de(3-O-cladinosyl)-9-dihydro-3-keto-de(3′-dimethylamino)-3′-morpholino-pseudoerythromycin A 6,9-epoxide 12,13-carbonate] | 30 |
| CC[C@H]1OC(=O)O[C@@]1(C)[C@@H]1OC(=O)[C@H](C)[C@@H](O)[C@H](C)[C@@H](O[C@@H]2OC(C)CC(N3CCOCC3)C2O)[C@]2(C)CC(C)C(O2)[C@@H]1C (stereo partly shown) [EM946, de(3-O-cladinosyl)-9-dihydro-de(3′-dimethylamino)-3′-morpholino-pseudoerythromycin A 6,9-epoxide 12,13-carbonate] | 100 |
| CC[C@H]1OC(C)(C)O[C@@]1(C)[C@@H]1OC(=O)[C@H](C)C(=O)[C@H](C)[C@@H](O[C@@H]2OC(C)CC(N(C)Cc3ccc(Cl)cc3)C2O)[C@]2(C)CC(C)C(O2)[C@@H]1C (stereo partly shown) [EM947, de(3′-N-methyl)-3′-N-(p-chlorobenzyl)-de(3-O-cladinosyl)-9-dihydro-3-keto-pseudoerythromycin A 6,9-epoxide 12,13-isopropylidene Acetal] | 10 |
| CC[C@@H]1O[C@@]1(C)[C@@H]1OC(=O)[C@H](C)[C@@H](O[C@H]2CC(C)(OC)[C@@H](O)C(C)O2)[C@H](C)[C@@H](O[C@@H]2OC(C)CC(N(C)C)C2O)[C@]2(C)CC(C)C(O2)[C@@H]1C (stereo partly shown) [EM909, 12,13-epoxy-9-dihydro-pseudoerythromycin A 6,9-epoxide] | 30 |
| CC[C@H]1OC(=O)O[C@@]1(C)[C@@H]1OC(=O)[C@H](C)[C@@H](O)[C@H](C)[C@@H](O[C@@H]2OC(C)CC(N(C)C(=O)OCc3ccccc3)C2OC(=O)OCc2ccccc2)[C@]2(C)CC(C)C(O2)[C@@H]1C (stereo partly shown) [EM936, de(3′-N-methyl)-2′-O-3′-N-bis(benzyloxycarbonyl)-de(3-O-cladinosyl)-9-dihydro-pseudoerythromycin A 6,9-epoxide 12,13-carbonate] | 10 |
| CC[C@@H](O)[C@@](C)(O)[C@@H]1OC(=O)[C@H](C)[C@@H](O)[C@H](C)[C@@H](O[C@@H]2OC(C)CC(N(C)C)C2O)[C@]2(C)CC(C)C(O2)[C@@H]1C (stereo partly shown) [EM910, de(3-O-cladinosyl)-9-dihydro-pseudoerythromycin A 6,9-epoxide] | 100 |

same assay, conditions: lowest concentration necessary to show 50% activity relative to the activity value of erythromycin A at 100 μM; PMA 1-2 μM, 72-96 hr

| Structure (SMILES) | THP-1 differentiation induction-promoting activity |
| --- | --- |
| CO[C@]1(C)C[C@H](O[C@H]2[C@H](C)[C@@H](O[C@@H]3O[C@H](C)C[C@H](N(C)C)[C@H]3O)[C@@]3(C)C[C@@H](C)[C@H](O3)[C@H](C)[C@H](/C(C)=N/O)OC(=O)[C@@H]2C)O[C@@H](C)[C@@H]1O [EM907, de[12-(1-hydroxypropyl)]-9-dihydro-12-hydroxyoxime-pseudoerythromycin A 6,9-epoxide] | 30 |

— patent US8133871B2, “Dihydropseudoerythromycin derivatives” (The Kitasato Institute, priority 2005, dated 2012)
